Measured values published in patent US20080004302A1, “Novel Compounds” (ASTRAZENECA AB, priority 2006, published 2008).
Where a name gives a salt, the structure may show the parent alone. Read-outs that look alike come from different tables or passages of the source.

How the values were obtained:
FGFR1 IIIc [1] = biological target: T1, FGFR1 IIIc (Homo sapiens, UniProt P11362); assay: Cell based inhibition of transiently expressed FGFR1 IIIc phosphorylation via use of ECHO technology (Cos-1 cells)
T1 construct: host or cells: Cos-1
T1 sequence (P11362 22-822): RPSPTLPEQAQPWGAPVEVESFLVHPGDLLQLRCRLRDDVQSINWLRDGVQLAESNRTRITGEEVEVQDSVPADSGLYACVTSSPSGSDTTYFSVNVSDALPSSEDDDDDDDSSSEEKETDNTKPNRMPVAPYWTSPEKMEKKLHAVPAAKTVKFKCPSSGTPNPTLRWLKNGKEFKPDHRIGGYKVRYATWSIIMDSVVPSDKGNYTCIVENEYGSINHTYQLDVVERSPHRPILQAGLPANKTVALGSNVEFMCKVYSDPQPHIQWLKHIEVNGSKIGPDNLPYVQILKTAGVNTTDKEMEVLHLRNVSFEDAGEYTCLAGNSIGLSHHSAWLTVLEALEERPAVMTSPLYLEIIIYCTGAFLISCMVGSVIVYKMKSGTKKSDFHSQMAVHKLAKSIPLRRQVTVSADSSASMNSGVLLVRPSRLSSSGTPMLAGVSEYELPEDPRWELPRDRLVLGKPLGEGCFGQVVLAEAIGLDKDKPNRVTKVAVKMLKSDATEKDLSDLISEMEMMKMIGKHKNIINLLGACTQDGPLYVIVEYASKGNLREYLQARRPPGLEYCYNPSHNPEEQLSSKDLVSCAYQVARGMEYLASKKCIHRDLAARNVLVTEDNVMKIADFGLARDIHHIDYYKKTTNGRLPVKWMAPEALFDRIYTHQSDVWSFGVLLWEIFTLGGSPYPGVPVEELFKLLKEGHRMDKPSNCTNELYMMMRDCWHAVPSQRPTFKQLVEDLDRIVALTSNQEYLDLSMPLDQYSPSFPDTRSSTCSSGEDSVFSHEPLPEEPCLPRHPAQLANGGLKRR

FGFR kinase domain = biological target: T2, FGFR kinase domain (Homo sapiens, UniProt P11362, C488A/C584S); assay: Kinase assay (ELISA) for inhibition of FGFR activity; assay type: biochemical; details: FGFR inhibition tests, ELISA kinase assay; read-out: Activity class
T2 construct: FGFR kinase domain (amino acids 458-765, C488A, C584S) N-terminally fused to a His6-tag; made in house
T2 sequence (P11362 458-765 C488A/C584S): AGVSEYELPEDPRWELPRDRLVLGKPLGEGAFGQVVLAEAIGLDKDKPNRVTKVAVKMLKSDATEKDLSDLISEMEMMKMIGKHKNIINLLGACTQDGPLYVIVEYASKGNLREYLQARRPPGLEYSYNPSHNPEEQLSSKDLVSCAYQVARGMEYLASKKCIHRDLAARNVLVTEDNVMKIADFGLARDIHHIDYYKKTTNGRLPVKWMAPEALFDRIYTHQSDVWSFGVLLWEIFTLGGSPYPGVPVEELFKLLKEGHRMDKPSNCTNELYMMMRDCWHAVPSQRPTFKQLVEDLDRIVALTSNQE
Method: To determine inhibition of FGFR activity, kinase assays were conducted using ELISA (Enzyme-Linked Immunosorbent Assay) technology.
Kinase activity assays were performed in 384-well polypropylene plates (Matrix, 4311) with a total volume of 40 μl in each well. Each well was coated with 2 μg of polyEAY substrate (Sigma, P3899) at 4° C. overnight. The plates were then washed once with 100 μl PBS and once with 100 μl 50 mM HEPES (pH 7.4) prior to the addition of the kinase assay reagents. […] Various concentrations of test compounds were each added in 5% (v/v) DMSO to yield a final assay DMSO concentration of 1.25% (v/v). The kinase reactions were incubated at room temperature for 45 minutes and stopped by washing the plate three times with 100 μl PBS plus 0.05% Tween. […] Following this, the plates were then washed repeatedly with 100 μl PBS plus 0.05% Tween to remove all traces of the antibody solution. 40 μl of 50 μg/ml 3,3′,5,5′-Tetramethylbenzidine (Sigma, T2885), 0.05M phosphate-citrate buffer, containing 0.03% sodium perborate was added to each well and the plates incubated at room temperature for twelve minutes. The colour reaction was stopped by the addition of 20 μl 2M H2SO4 and the plates read at 450 nm on a Spectrafluor Plus (Tecan).

FGFR1 IIIc [2] = biological target: T1, FGFR1 IIIc; assay: Cell based inhibition of transiently expressed FGFR1 IIIc phosphorylation (Cos-1 cells)
Method: This assay is designed to detect inhibitors of transiently expressed FGFR1 phosphorylation by antibody staining of fixed cells detected using ArrayScan technology.
To undertake the assay, Cos-1 cells were harvested at 90-95% confluence for cell transfection. For each 96-well plate, 24 ul Lipofectamine 2000 was added to 809 ul OptiMEM and incubated at room temperature for 5 minutes. […] Equal volumes of DNA and Lipofectamine 2000 were combined (DNA: Lipid=1:1.2 ratio) and incubated at room temperature for 20 minutes.
The harvested Cos-1 cells are counted using a coulter counter and diluted further with 1% FCS/DMEM to 2.5×10^5 cells/ml. For each 96-well, 8.33 ml cells were required. […] Media was removed from the wells using vacuum aspiration; cells were fixed by adding 50μl of 100% methanol to each well and incubated at room temperature for 20 minutes.
The plates were read on an Arrayscan (Cellomics).

human IGF1R = biological target: T3, human IGF1R (Homo sapiens, UniProt P08069); assay: Inhibition of insulin-like growth factor-1 receptor phosphorylation in R+ cells; assay type: cell-based; details: 30 nM IGF1, read-out: IGF cell class
T3 construct: expressed in transfected cells; host or cells: R+ cells (R- mouse fibroblasts transfected with human IGF1R)
T3 sequence (P08069 31-1367): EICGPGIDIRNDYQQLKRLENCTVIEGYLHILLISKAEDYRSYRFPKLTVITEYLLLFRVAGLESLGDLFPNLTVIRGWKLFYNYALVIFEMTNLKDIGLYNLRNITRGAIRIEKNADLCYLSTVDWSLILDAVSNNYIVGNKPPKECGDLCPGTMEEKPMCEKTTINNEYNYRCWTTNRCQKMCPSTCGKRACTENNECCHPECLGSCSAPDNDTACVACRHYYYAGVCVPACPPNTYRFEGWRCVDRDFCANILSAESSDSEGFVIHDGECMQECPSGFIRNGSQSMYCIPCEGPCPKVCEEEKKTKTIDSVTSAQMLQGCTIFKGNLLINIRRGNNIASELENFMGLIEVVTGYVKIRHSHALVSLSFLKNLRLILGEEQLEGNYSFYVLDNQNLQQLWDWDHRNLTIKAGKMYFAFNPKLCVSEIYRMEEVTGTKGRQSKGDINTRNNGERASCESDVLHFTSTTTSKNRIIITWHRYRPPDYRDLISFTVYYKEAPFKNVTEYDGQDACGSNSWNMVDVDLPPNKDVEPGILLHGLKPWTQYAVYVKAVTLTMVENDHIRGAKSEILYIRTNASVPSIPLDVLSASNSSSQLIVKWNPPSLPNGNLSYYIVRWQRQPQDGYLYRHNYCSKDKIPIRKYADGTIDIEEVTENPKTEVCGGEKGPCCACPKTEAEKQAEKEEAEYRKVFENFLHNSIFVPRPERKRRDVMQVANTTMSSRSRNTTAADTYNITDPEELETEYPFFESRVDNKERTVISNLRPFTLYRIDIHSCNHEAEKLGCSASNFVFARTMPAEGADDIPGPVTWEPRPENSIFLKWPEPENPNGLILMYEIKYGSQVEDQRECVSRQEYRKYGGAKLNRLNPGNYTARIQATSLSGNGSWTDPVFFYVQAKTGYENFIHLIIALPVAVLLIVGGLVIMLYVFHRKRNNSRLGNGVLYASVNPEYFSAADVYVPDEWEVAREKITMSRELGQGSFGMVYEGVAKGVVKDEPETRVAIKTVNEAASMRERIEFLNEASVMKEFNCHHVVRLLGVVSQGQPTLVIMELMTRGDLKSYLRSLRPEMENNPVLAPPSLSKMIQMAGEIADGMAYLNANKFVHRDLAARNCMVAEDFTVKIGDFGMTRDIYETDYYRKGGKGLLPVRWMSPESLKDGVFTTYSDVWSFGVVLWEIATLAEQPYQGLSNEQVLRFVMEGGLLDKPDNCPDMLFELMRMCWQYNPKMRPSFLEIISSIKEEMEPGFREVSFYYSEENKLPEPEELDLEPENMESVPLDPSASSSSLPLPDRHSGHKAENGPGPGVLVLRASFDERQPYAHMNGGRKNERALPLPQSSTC

Erk phosphorylation = assay: Growth factor (bFGF) stimulated Erk phosphorylation in NIH 3T3 cells; details: Mus musculus, NIH3T3, NIH 3T3 cells, 3 ng/ml bFGF
Source text: These and other assays were used to evaluate the ability of a test compound to inhibit growth factor stimulated cellular signalling in mammalian cell lines. This was achieved by measuring the amount of receptor tyrosine kinase regulated Erk phosphorylation within a cell following compound treatment.
NIH 3T3 (ECACC, 93061524) cells were routinely passaged in DMEM (Gibco BRL, 41966) plus 10% foetal calf serum (FCS), 1% L-glutamine (Gibco BRL, 25030) to a confluence not greater than 80%. To undertake the assay, NIH 3T3's were seeded at 1×10^4 cells/well in DMEM plus 10% foetal calf serum, 1% L-glutamine in 96 well plates (Costar, 3904) and incubated at 37° C. (+5% CO2) in a humidified incubator. Once the cells had fully adhered (typically following 4-5 hours incubation) the media was removed from each well and the cells gently washed with 100μl warm serum free media. 90μl of serum free DMEM plus 1% L-glutamine was then added to each well and the plates were returned to a humidified 37° C. (+5% CO2) incubator. The following day, the plates were dosed with 10[l compound (diluted from 10 mM stock in DMSO using serum free DMEM) and the plates were returned to a humidified 37° C. (+5% CO2) incubator for one hour. NIH 3T3 cells were then stimulated with a final concentration of 3 ng/ml bFGF (Sigma, F029 1) for 20 minutes at 37° C. Following stimulation the cells were fixed by adding formaldehyde (4% v/v final concentration) and incubating at room temperature for 20 minutes. The fixative solution was then removed and the wells were washed twice with 100μl phosphate buffered saline (PBS/A) before permeabilising the cells by the addition of 50 μl/well 0.1% triton/PBS/A for 10 minutes at room temperature. The permeabilisation solution was then removed and the cells washed twice more with 100 μl/well PBS/A before the addition of 50 μl/well anti-phospho p44/42 (Cell Signalling Technology, 9106), diluted 1/500 with PBS/A plus 10% FCS. The anti-phospho p44/42 antibody recognises Erk phosphorylated at threonine 202 and tyrosine 204. […] Finally, the plates were washed three times with 100 μl/well PBS/A, leaving the final wash in the wells before sealing the plates. The plates were read at 350 nm and 488 nm using an Arrayscan (Cellomics).

FGFR1 kinase = FGFR1 kinase (Homo sapiens, UniProt P11362); assay: Kinase assay (using Caliper technology); assay type: biochemical
FGFR1 kinase, sequence (P11362 22-822): as the sequence (P11362 22-822) above
Summary of the method: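 Human FGFR1 kinase activity measured with a 13-mer fluorescently tagged FGFR1-specific peptide substrate; compounds serially diluted in 5% (v/v) DMSO. Reactions ran 1.5 h at room temperature, stopped with EDTA-containing HEPES pH 7.5 buffer. Phosphorylated and unphosphorylated peptide separated by microfluidic mobility shift.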

[3] = Cos-1 cells, phospho-FGFR1, ECHO dosing, upper bound of bin, read-out: IC50
[4] = Cos-1 cells, phospho-FGFR1, upper bound of bin, read-out: IC50
[5] = FGFR1 kinase, Caliper, upper bound of bin, read-out: IC50

SMILES | IC50 (FGFR1 IIIc [1]; [3]) [nM] | IC50 (FGFR kinase domain) [nM] | IC50 (FGFR1 IIIc [2]; [4]) [nM] | IC50 (human IGF1R) [nM] | IC50 (Erk phosphorylation) [nM] | IC50 (FGFR1 kinase; [5]) [nM] | IC50 (FGFR1 IIIc [1]) [nM] | IC50 (FGFR1 IIIc [2]) [nM] | IC50 (FGFR1 kinase) [nM] | IC50 (Erk phosphorylation; upper bound of bin) [nM]
Cc1cc(CN(C)c2nccc(Nc3cc(C)[nH]n3)n2)on1 [Example 2, N-methyl-N-[(3-methylisoxazol-5-yl)methyl]-N′-(5-methyl-2H-pyrazol-3-yl)pyrimidine-2,4-diamine] | < 1000 | 100 to 1000 |  |  |  |  |  |  |  | 
Cc1cc(CNc2nccc(Nc3cc(CCc4cccc(O)c4)[nH]n3)n2)on1 [Example 41, 3-[2-[5-[[2-[(3-methyl1,2-oxazol-5-yl)methylamino]pyrimidin-4-yl]amino]-1H-pyrazol-3-yl]ethyl]phenol] | < 1000 |  | < 1000 | 1000 to 10000 | < 200 | < 200 |  |  |  | 
COc1cc(CCc2cc(Nc3ccnc(NCc4cc(C)no4)n3)n[nH]2)cc(OC)c1 [Example 42, N′-[5-[2-(3,5-dimethoxyphenyl)ethyl]-2H-pyrazol-3-yl]-N-[(3-methyl1,2-oxazol-5-yl)methyl]pyrimidine-2,4-diamine] |  |  |  | 1000 to 10000 | < 200 |  | < 200 | < 200 | < 200 | 
Cc1cc(CNc2nccc(Nc3cc(CCc4cccc(OC(F)(F)F)c4)[nH]n3)n2)on1 [Example 51, N-[(3-methyl1,2-oxazol-5-yl)methyl]-N′-[5-[2-[3-(trifluoromethoxy)phenyl]ethyl]-1H-pyrazol-3-yl]pyrimidine-2,4-diamine] |  |  | < 10000 | > 10000 |  | < 10000 |  |  |  | < 10000
Cc1cccc(CCc2cc(Nc3ccnc(NCc4cc(C)no4)n3)n[nH]2)c1 [Example 52, N-[(3-methyl1,2-oxazol-5-yl)methyl]-N′-[5-[2-(3-methylphenyl)ethyl]-1H-pyrazol-3-yl]pyrimidine-2,4-diamine hydrochloride] | < 1000 |  | < 1000 | > 10000 | < 200 | < 200 |  |  |  | 
Cc1cc(CNc2nccc(Nc3cc(CCc4cccc(Br)c4)[nH]n3)n2)on1 [Example 53, N′-[5-[2-(3-bromophenyl)ethyl]-1H-pyrazol-3-yl]-N-[(3-methyl1,2-oxazol-5-yl)methyl]pyrimidine-2,4-diamine hydrochloride] |  |  | < 1000 | > 10000 | < 200 | < 1000 |  |  |  | < 1000
Cc1cc(CNc2nccc(Nc3cc(CCc4ccc5c(c4)OCO5)[nH]n3)n2)on1 [Example 54, N′-[5-(2-benzo [1,3]dioxol-5-ylethyl)-2H-pyrazol-3-yl]-N-[(3-methyl1,2-oxazol-5-yl)methyl]pyrimidine-2,4-diamine] |  |  | < 1000 | 1000 to 10000 |  | < 1000 |  |  |  | < 1000
Cc1cc(CNc2nccc(Nc3cc(OCc4cccc(OS(C)(=O)=O)c4)[nH]n3)n2)on1 [Example 88, N-[(3-methyl1,2-oxazol-5-yl)methyl]-N′-[5-[(3-methylsulfonyloxyphenyl)methoxy]-2H-pyrazol-3-yl]pyrimidine-2,4-diamine] |  |  | < 10000 | > 10000 |  | < 1000 |  |  |  | < 10000
CNC(=O)c1cccc(COc2cc(Nc3ccnc(NCc4cc(C)no4)n3)n[nH]2)c1 [Example 91, N-methyl-3-[[5-[[2-[(3-methyl1,2-oxazol-5-yl)methylamino]pyrimidin-4-yl]amino]-1H-pyrazol-3-yl]oxymethyl]benzamide] | < 1000 |  | < 1000 | > 10000 | < 200 | < 200 |  |  |  | 
Cc1cc(CNc2nccc(Nc3cc(OCc4cccc(Cl)c4)[nH]n3)n2)on1 [Example 93, N′-[5-[(3-chlorophenyl)methoxy]-1H-pyrazol-3-yl]-N-[(3-methyl1,2-oxazol-5-yl)methyl]pyrimidine-2,4-diamine hydrochloride] | < 1000 |  | < 1000 | > 10000 | < 200 | < 1000 |  |  |  | 
Cc1cc(CNc2nccc(Nc3cc(OCc4cccc(F)c4)[nH]n3)n2)on1 [Example 94, N′-[5-[(3-fluorophenyl)methoxy]-1H-pyrazol-3-yl]-N-[(3-methyl1,2-oxazol-5-yl)methyl]pyrimidine-2,4-diamine hydrochloride] | < 200 |  | < 1000 | > 10000 | < 200 | < 1000 |  |  |  | 
Cc1cc(CNc2nccc(Nc3cc(OCc4cccc(C(F)(F)F)c4)[nH]n3)n2)on1 [Example 95, N-[(3-methyl1,2-oxazol-5-yl)methyl]-N′-[5-[[3-(trifluoromethyl)phenyl]methoxy]-1H-pyrazol-3-yl]pyrimidine-2,4-diamine hydrochloride] |  |  | < 10000 | > 10000 |  | < 10000 |  |  |  | < 10000
COC(=O)c1cccc(COc2cc(Nc3ccnc(NCc4cc(C)no4)n3)n[nH]2)c1 [Example 97, Methyl 3-[[5-[[2-[(3-methyl1,2-oxazol-5-yl)methylamino]pyrimidin-4-yl]amino]-1H-pyrazol-3-yl]oxymethyl]benzoate hydrochloride] | < 200 |  | < 200 | 1000 to 10000 | < 200 |  |  |  |  | 
COc1cc(COc2cc(Nc3ccnc(NCc4cc(C)no4)n3)n[nH]2)ccc1F [Example 100, N′-[5-[(4-fluoro-3-methoxy-phenyl)methoxy]-1H-pyrazol-3-yl]-N-[(3-methyl1,2-oxazol-5-yl)methyl]pyrimidine-2,4-diamine hydrochloride] |  |  | < 10000 | 1000 to 10000 |  | < 10000 |  |  |  | < 10000
Cc1cc(CNc2nccc(Nc3cc(-c4ccco4)[nH]n3)n2)on1 [Example 105, N′-[5-(2-furyl)-1H-pyrazol-3-yl]-N-[(3-methyl1,2-oxazol-5-yl)methyl]pyrimidine-2,4-diamine] |  |  | < 10000 | > 10000 |  | < 1000 |  |  |  | < 1000
Cc1cc(CNc2nccc(Nc3cc(CCC4CCOC4)[nH]n3)n2)on1 (centres unmarked) [Example 109, N-[(3-methyl1,2-oxazol-5-yl)methyl]-N′-[5-[2-(oxolan-3-yl)ethyl]-1H-pyrazol-3-yl]pyrimidine-2,4-diamine] |  |  | < 10000 | > 10000 |  | < 1000 |  |  |  | < 10000
Cc1cc(CNc2nccc(Nc3cc(CCc4ccoc4)[nH]n3)n2)on1 [Example 110, N′-[5-[2-(3-furyl)ethyl]-1H-pyrazol-3-yl]-N-[(3-methyl1,2-oxazol-5-yl)methyl]pyrimidine-2,4-diamine] |  |  | < 1000 | 1000 to 10000 |  | < 200 |  |  |  | < 1000
c1coc(CCc2cc(Nc3ccnc(NCc4cc(C5CC5)no4)n3)n[nH]2)c1 [Example 111, N-[(3-cyclopropyl1,2-oxazol-5-yl)methyl]-N′-[5-[2-(2-furyl)ethyl]-2H-pyrazol-3-yl]pyrimidine-2,4-diamine] | < 200 |  | < 1000 | 1000 to 10000 | < 200 | < 200 |  |  |  | 
c1cnc(-c2cc(CNc3nccc(Nc4cc(CCc5ccco5)[nH]n4)n3)on2)nc1 [Example 113, N′-[5-[2-(2-furyl)ethyl]-2H-pyrazol-3-yl]-N-[(3-pyrimidin-2-yl1,2-oxazol-5-yl)methyl]pyrimidine-2,4-diamine] |  |  | < 10000 | 1000 to 10000 |  | < 200 |  |  |  | < 10000
Cc1cc(CNc2nccc(Nc3cc(CCc4cc(C)nn4C)[nH]n3)n2)on1 [Example 118, N′-[5-[2-(2,5-dimethylpyrazol-3-yl)ethyl]-1H-pyrazol-3-yl]-N-[(3-methyl-1,2-oxazol-5-yl)methyl]pyrimidine-2,4-diamine] |  |  | < 30000 | > 10000 |  | < 1000 |  |  |  | < 30000
